Assay results: ChEMBL document CHEMBL1135257, “Bivalent inhibition of beta-tryptase: distance scan of neighboring subunits by dibasic inhibitors” (Bioorg Med Chem Lett, 2002)

Biological target: Tryptase beta-1 (Homo sapiens, UniProt Q15661)
Test: Inhibitory activity against human Tryptase beta was evaluated

Tryptase beta-1, sequence (Q15661 whole entry): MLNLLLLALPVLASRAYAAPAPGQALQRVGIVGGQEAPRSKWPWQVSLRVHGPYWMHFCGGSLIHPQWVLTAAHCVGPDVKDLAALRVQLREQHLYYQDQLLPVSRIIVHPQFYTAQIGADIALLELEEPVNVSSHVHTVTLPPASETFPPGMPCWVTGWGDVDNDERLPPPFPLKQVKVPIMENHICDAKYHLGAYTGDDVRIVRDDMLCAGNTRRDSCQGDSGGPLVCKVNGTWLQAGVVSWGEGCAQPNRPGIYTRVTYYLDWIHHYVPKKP

Row | Ki [nM] | SMILES
1 | 180 | COC(=O)C(Cc1cccc(CN)c1)NC(=O)CC[C@@H]1NC(=O)[C@@H](CC(=O)NCC(=O)NC(Cc2cccc(CN)c2)C(=O)OC)NC1=O (some centres not stated)
2 | 18 | COC(=O)C(Cc1cccc(CN)c1)NC(=O)CNC(=O)C[C@@H]1NC(=O)[C@@H](CC(=O)NCC(=O)NC(Cc2cccc(CN)c2)C(=O)OC)NC1=O (some centres not stated)
3 | 13700 | COC(=O)[C@@H](Cc1cccc(CN)c1)NC(C)=O
4 | 213000 | COC(=O)[C@@H](Cc1ccc(CN)cc1)NC(C)=O
5 | 350 | COC(=O)C(Cc1cccc(CN)c1)NC(=O)CCCNC(=O)C[C@@H]1NC(=O)[C@@H](CC(=O)NCCCC(=O)NC(Cc2cccc(CN)c2)C(=O)OC)NC1=O (some centres not stated)
6 | 10 | COC(=O)C(Cc1cccc(CN)c1)NC(=O)CCNC(=O)C[C@@H]1NC(=O)[C@@H](CC(=O)NCCC(=O)NC(Cc2cccc(CN)c2)C(=O)OC)NC1=O (some centres not stated)
7 | 2400 | COC(=O)C(Cc1cccc(CN)c1)NC(=O)CCC1NC(=O)[C@@H](CCC(=O)NC(Cc2cccc(CN)c2)C(=O)OC)NC1=O (some centres not stated)
